Results as given in the supplement of paper PMC10627819.

How the values were obtained:
S. aureus Newman = experiment: fitness (endpoint OD595 vs no drug) (fraction); higher = more growth
Procedure, shortened: (§1)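 Fitness was defined as the optical density at the transition into stationary phase relative to the robust mean of no-drug control wells. Values were capped at 1. Cultures were started at OD595 0.01 in 384-well plates (30 µl, or 55 µl for S. pneumoniae) in TSB, LB Lennox or CY at 37 °C. OD595 was recorded every 30 min over 14 h, with the first reading subtracted as background.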

B. subtilis 168 = experiment: as above
Procedure, shortened: as §1

S. aureus DSM 20231 [1] = experiment: as above
Procedure, shortened: as §1

S. pneumoniae D39V = experiment: as above
Procedure, shortened: as §1

S. aureus DSM 20231 [2] = experiment: Bliss interaction score (quartile over a dose matrix) (fitness difference); higher = more antagonism (negative = synergy)
Procedure, shortened: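 Fitness here means normalised growth, inferred for single drugs from the combination data. Growth was OD595 at entry into stationary phase, divided by the plate's robust no-drug mean and capped at 1. The Bliss score is observed minus expected fitness, with the expectation being the product, and its quartiles span technical, biological and donor/recipient replicates.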
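For Bliss interaction score (quartile over a dose matrix) in this document: first quartile when negative (synergy) and third quartile when positive (antagonism).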

Cc1cc(NS(=O)(=O)c2ccc(N)cc2)no1 [Sulfamethoxazol] + CN[C@@H]1[C@H](O)[C@H](NC)[C@H]2O[C@@]3(O)C(=O)C[C@@H](C)O[C@H]3O[C@@H]2[C@H]1O [Spectinomycin]
fitness
Details	first compound 1 µg/mL	first compound 2 µg/mL	first compound 4 µg/mL
B. subtilis 168, partner 2 µg/mL	0.926	0.853	0.941
B. subtilis 168, partner 4 µg/mL	0.92	0.861	0.959
B. subtilis 168, partner 8 µg/mL	0.96	0.891	0.891
S. aureus DSM 20231 [1], partner 4 µg/mL	0.897	0.896	0.994
S. aureus DSM 20231 [1], partner 8 µg/mL	0.822	0.861	0.957
S. aureus DSM 20231 [1], partner 16 µg/mL	0.763	0.812	0.849
S. aureus Newman, partner 4 µg/mL	0.972	0.964	0.983
S. aureus Newman, partner 8 µg/mL	0.986	0.985	0.967
S. aureus Newman, partner 16 µg/mL	0.877	0.927	0.925
S. pneumoniae D39V, partner 4 µg/mL	0.954	0.889	0.924
S. pneumoniae D39V, partner 8 µg/mL	0.935	0.899	0.922

one replicate
Details	fitness
B. subtilis 168, first compound 0.5 µg/mL, partner 2 µg/mL	0.916
B. subtilis 168, first compound 0.5 µg/mL, partner 4 µg/mL	0.882
B. subtilis 168, first compound 0.5 µg/mL, partner 8 µg/mL	0.851
S. aureus DSM 20231 [1], first compound 1 µg/mL, partner 32 µg/mL	0.826
S. aureus DSM 20231 [1], first compound 1 µg/mL, partner 64 µg/mL	0.08
S. aureus DSM 20231 [1], first compound 2 µg/mL, partner 32 µg/mL	0.796
S. aureus DSM 20231 [1], first compound 2 µg/mL, partner 64 µg/mL	0.0783
S. aureus DSM 20231 [1], first compound 4 µg/mL, partner 32 µg/mL	0.802
S. aureus DSM 20231 [1], first compound 4 µg/mL, partner 64 µg/mL	0.0708
S. aureus Newman, first compound 1 µg/mL, partner 32 µg/mL	0.589
S. aureus Newman, first compound 1 µg/mL, partner 64 µg/mL	0.0829
S. aureus Newman, first compound 2 µg/mL, partner 32 µg/mL	0.577
S. aureus Newman, first compound 2 µg/mL, partner 64 µg/mL	0.0759
S. aureus Newman, first compound 4 µg/mL, partner 32 µg/mL	0.581
S. aureus Newman, first compound 4 µg/mL, partner 64 µg/mL	0.0529
S. aureus Newman, first compound 8 µg/mL, partner 4 µg/mL	≥ 1
S. aureus Newman, first compound 8 µg/mL, partner 8 µg/mL	0.959
S. aureus Newman, first compound 8 µg/mL, partner 16 µg/mL	0.905
S. pneumoniae D39V, first compound 1 µg/mL, partner 16 µg/mL	0.691
S. pneumoniae D39V, first compound 2 µg/mL, partner 16 µg/mL	0.634
S. pneumoniae D39V, first compound 4 µg/mL, partner 16 µg/mL	0.702

CC[C@H]1OC(=O)[C@H](C)C(=O)[C@H](C)[C@@H](O[C@@H]2O[C@H](C)C[C@H](N(C)C)[C@H]2O)[C@](C)(OC)C[C@@H](C)C(=O)[C@H](C)[C@H]2N(CCCCn3cnc(-c4cccnc4)c3)C(=O)O[C@]12C [Telithromycin] + Cc1ccc(C(C)C)c(O)c1 [Thymol]
Details	Bliss interaction score
S. aureus DSM 20231 [2]	-0.222

Cc1c(Cl)cccc1Nc1ccccc1C(=O)O [Tolfenamic] + CN[C@H](CC(C)C)C(=O)N[C@H]1C(=O)N[C@@H](CC(N)=O)C(=O)N[C@H]2C(=O)N[C@H]3C(=O)N[C@H](C(=O)N[C@H](C(=O)O)c4cc(O)cc(O)c4-c4cc3ccc4O)[C@H](O)c3ccc(c(Cl)c3)Oc3cc2cc(c3O[C@@H]2O[C@H](CO)[C@@H](O)[C@H](O)[C@H]2O[C@H]2C[C@](C)(N)[C@H](O)[C@H](C)O2)Oc2ccc(cc2Cl)[C@H]1O [Vancomycin]
Details	Bliss interaction score
S. aureus DSM 20231 [2]	0.124

Cc1c(Cl)cccc1Nc1ccccc1C(=O)O [Tolfenamic] + COc1cc(Cc2cnc(N)nc2N)cc(OC)c1OC [Trimethoprim]
Details	Bliss interaction score
S. aureus DSM 20231 [2]	-0.185
